Square brackets hold non-standard residues; d marks the D form. Peptide text beside a SMILES is read from it. Aib = CC(C)(N)C(=O)O
Molecular target: T1, human GLP-1 R (Homo sapiens, UniProt P43220)
T1 construct: expressed in transfected cells
Test: Human GLP-1 receptor (GLP-1 R) activity assay, cAMP induction (AlphaScreen cAMP kit)
Format: cell-based
Details: HEK293 cells expressing the human GLP-1 R, 15 min at 37° C., average values of multiple determinations, read-out: GLP1 R (EC50 in nM)
Experimental: Human GIP Receptor (GIP R) and GLP-1 Receptor (GLP-1 R) Activity Assay
In vitro effects of peptide conjugates of the invention were assessed by measuring the induction of cAMP following stimulation of the respective receptor by GIP, GLP1 or analogues of these, as outlined in the invention, using the AlphaSceen® cAMP kit from Perkin-Elmer according to instructions. Briefly. HEK293 cells expressing the human GIP R or GLP-1 R (stable cell lines generated through transfection of the cDNA for human GIP R or GLP-1 and selection of stable clones) were seeded at 30,000 cells/well in 96-well microtiter plates coated with 0.01% poly-L-lysine, and grown for 1 day in culture in 200 μl growth medium (DMEM, 10% FCS, Penicillin (100 IU/ml), Streptomycin (100 μg/ml)). On the day of analysis, growth medium was removed and the cells were washed once with […] Tyrode's buffer (Tyrode's Salts (9.6 g/1), 10 mM HEPES, pH 7.4). […] The Assay buffer was removed and cells are lysed in 80 μl Lysis buffer (0.1% w/v BSA, 5 mM HEPES, 0.3% v/v Tween-20) per well. From each well 10 μl lysed cells was transferred to a 384-well plate and mixed with 15 μl bead-mix (1 Unit/15 μl anti-cAMP Acceptor Beads, 1 Unit/15 μl Donor Beads, and 1 Unit/15 μl Biotinylated cAMP in Assay Buffer). The plates were mixed and incubated in the dark for an hour at room temperature before measuring using an Envision™ plate reader (Perkin-Elmer).

T1 sequence (P43220 24-463): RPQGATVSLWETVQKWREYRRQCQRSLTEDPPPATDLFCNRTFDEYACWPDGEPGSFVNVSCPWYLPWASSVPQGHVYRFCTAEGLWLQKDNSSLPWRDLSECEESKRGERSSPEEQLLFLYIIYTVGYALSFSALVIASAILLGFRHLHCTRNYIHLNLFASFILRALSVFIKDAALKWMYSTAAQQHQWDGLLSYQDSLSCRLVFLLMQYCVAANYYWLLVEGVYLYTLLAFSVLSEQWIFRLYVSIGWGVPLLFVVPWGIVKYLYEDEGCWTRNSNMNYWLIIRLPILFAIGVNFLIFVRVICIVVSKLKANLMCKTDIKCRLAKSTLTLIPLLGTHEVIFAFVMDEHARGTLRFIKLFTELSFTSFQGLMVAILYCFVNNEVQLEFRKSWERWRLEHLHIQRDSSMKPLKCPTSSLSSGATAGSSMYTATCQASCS

EC50 [nM] | Compound
0.009 | CC[C@H](C)[C@H](NC(=O)[C@H](CO)NC(=O)[C@H](Cc1ccc(O)cc1)NC(=O)[C@H](CC(=O)O)NC(=O)[C@H](CO)NC(=O)[C@@H](NC(=O)[C@H](Cc1ccccc1)NC(=O)[C@@H](NC(=O)CNC(=O)[C@H](CCC(=O)O)NC(=O)C(C)(C)NC(=O)[C@@H](N)Cc1ccc(O)cc1)[C@@H](C)O)[C@@H](C)O)C(=O)N[C@@H](Cc1ccc(O)cc1)C(=O)N[C@@H](CC(C)C)C(=O)N[C@@H](CC(=O)O)C(=O)N[C@@H](CCCCN)C(=O)N[C@@H](CCCCN)C(=O)N[C@@H](C)C(=O)N[C@@H](CCC(N)=O)C(=O)N[C@@H](CCCNC(=N)N)C(=O)N[C@@H](C)C(=O)N[C@@H](Cc1ccccc1)C(=O)N[C@H](C(=O)N[C@@H](CC(N)=O)C(=O)N[C@@H](Cc1c[nH]c2ccccc12)C(=O)N[C@@H](CC(C)C)C(=O)N[C@H](C(=O)N[C@@H](C)C(=O)NC(C)(C)C(=O)N[C@@H](CCCCN)C(N)=O)C(C)C)C(C)C [Compound 21] (H-Y[Aib]EGTFTSDYSIYLDKKAQRAFVNWLVA[Aib]K-NH2)
0.022 | CC[C@H](C)[C@H](NC(=O)[C@H](CO)NC(=O)[C@H](Cc1ccc(O)cc1)NC(=O)[C@H](CC(=O)O)NC(=O)[C@H](CO)NC(=O)[C@@H](NC(=O)[C@H](Cc1ccccc1)NC(=O)[C@@H](NC(=O)CNC(=O)[C@H](CCC(=O)O)NC(=O)C(C)(C)NC(=O)[C@@H](N)Cc1ccc(O)cc1)[C@@H](C)O)[C@@H](C)O)C(=O)N[C@@H](Cc1ccc(O)cc1)C(=O)N[C@@H](CC(C)C)C(=O)N[C@@H](CC(=O)O)C(=O)N[C@@H](CCC(=O)O)C(=O)N[C@@H](CCCCN)C(=O)N[C@@H](C)C(=O)N[C@@H](C)C(=O)N[C@@H](CCCCN)C(=O)N[C@@H](CC(=O)O)C(=O)N[C@@H](Cc1ccccc1)C(=O)N[C@H](C(=O)N[C@@H](CCC(=O)O)C(=O)N[C@@H](Cc1c[nH]c2ccccc12)C(=O)N[C@@H](CC(C)C)C(=O)N[C@@H](CC(C)C)C(=O)N[C@@H](CO)C(=O)N[C@@H](C)C(N)=O)C(C)C [Compound 40] (H-Y[Aib]EGTFTSDYSIYLDEKAAKDFVEWLLSA-NH2)
0.012 | CC[C@H](C)[C@H](NC(=O)[C@H](CO)NC(=O)[C@H](Cc1ccc(O)cc1)NC(=O)[C@H](CC(=O)O)NC(=O)[C@H](CO)NC(=O)[C@@H](NC(=O)[C@H](Cc1ccccc1)NC(=O)[C@@H](NC(=O)CNC(=O)[C@H](CCC(=O)O)NC(=O)C(C)(C)NC(=O)[C@@H](N)Cc1ccc(O)cc1)[C@@H](C)O)[C@@H](C)O)C(=O)N[C@@H](Cc1ccc(O)cc1)C(=O)N[C@@H](CC(C)C)C(=O)N[C@@H](CC(=O)O)C(=O)N[C@@H](CCCCN)C(=O)N[C@@H](CCCCN)C(=O)N[C@@H](C)C(=O)N[C@@H](CCC(N)=O)C(=O)N[C@@H](CCCNC(=N)N)C(=O)N[C@@H](C)C(=O)N[C@@H](Cc1ccccc1)C(=O)N[C@H](C(=O)N[C@@H](CC(N)=O)C(=O)N[C@@H](Cc1c[nH]c2ccccc12)C(=O)N[C@@H](CC(C)C)C(=O)N[C@@H](CCCCN)C(=O)N[C@@H](C)C(=O)NC(C)(C)C(=O)N[C@@H](CCCCN)C(N)=O)C(C)C [Compound 23] (H-Y[Aib]EGTFTSDYSIYLDKKAQRAFVNWLKA[Aib]K-NH2)

From patent US10100097B2, “GIP-GLP-1 dual agonist compounds and methods” (Zealand Pharma A/S, priority 2012, dated 2018)
